Publication PMC4466200 (Bioorganic & Medicinal Chemistry Letters, 2015)

How the values were obtained:
[1] = system: SARS-CoV (strain Frankfurt-1); type: cell-based
[2] = system: MERS-CoV (strain EMC/2012)
SARS-CoV or MERS-CoV = settings: cited from earlier work
HIV-1 = settings: CD4+ T cells; McGuigan's ProTide technology employed; cited from earlier work
HSV-2 = settings: CD4+ T cells; McGuigan's ProTide technology employed; cited from earlier work
coronavirus = coronavirus replication in vitro; cited from earlier work
other viruses = settings: needed to inhibit other viruses; cited from earlier work
in vitro = settings: human

SMILES | block of virus replication (in words) [1] | block of virus replication (in words) [2] | activity against SARS-CoV or MERS-CoV in vitro (in words) (SARS-CoV or MERS-CoV) | other results
Nc1nc2c(ncn2COCCO)c(=O)[nH]1 [Acyclovir, acyclovir] | had no effect | had no effect | none of these well known antiviral drugs exhibited any activity | concentration suppressing replication (HIV-1): 3 to 12 µmol/L; concentration suppressing replication (HSV-2): 3 to 12 µmol/L
NC(=O)c1ncn([C@@H]2O[C@H](CO)[C@@H](O)[C@H]2O)n1 [Ribavirin, ribavirin] |  |  |  | inhibitory concentration (coronavirus): 500 to 5000 µg/mL; inhibitory concentration (other viruses): 50 to 100 µg/mL
COc1nc(N)ncc1-c1cn(COCCO)cn1 [compound 2] | but not SARS-CoV | can block the replication of MERS-CoV |  | EC50 [1]: No effect; selectivity ratio (in vitro): > 3
Nc1nc(O)c2ncn(COC(CO)CO)c2n1 [ganciclovir] |  |  | none of these well known antiviral drugs exhibited any activity | 
Nc1ccn([C@@H]2CS[C@H](CO)O2)c(=O)n1 [lamivudine] |  |  | none of these well known antiviral drugs exhibited any activity | 
Cc1cn([C@H]2C[C@H](N=[N+]=[N-])[C@@H](CO)O2)c(=O)[nH]c1=O [zidovudine] |  |  | none of these well known antiviral drugs exhibited any activity | 
